Assay results from ChEMBL document CHEMBL1201862, “PubChem BioAssay data set” (2004).
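96-well plates; 48 h exposure; 5 concentrations. Endpoints by linear interpolation between flanking doses. Not reached: highest tested concentration assigned. At the GI50, growth is halved.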 The source made the active and inactive calls. No stated cut-off is given here; in the data, active = GI50 up to about 1.1 µM and inactive = higher.

Columns and labels:
Experiment in all cases: NCI-60 cell line screen, 48 h
[1] = tested on: OVCAR-8
[2] = tested on: HCC 2998
[3] = tested on: SK-MEL-28
[4] = tested on: NCI/ADR-RES
[5] = tested on: DU-145
[6] = tested on: UACC-257
[7] = tested on: BT-549
[8] = tested on: KM12
[9] = tested on: NCI-H23
[10] = tested on: OVCAR-5
[11] = tested on: U-251
[12] = tested on: Hs-578T
[13] = tested on: UO-31
[14] = tested on: HCT-116
[15] = tested on: HOP-92
[16] = tested on: A498
[17] = tested on: A549
[18] = tested on: LOX IMVI
[19] = tested on: IGROV-1
[20] = tested on: SF-539

Compound	GI50 [1]	GI50 [2]	GI50 [3]	GI50 [4]	GI50 [5]	GI50 [6]	GI50 [7]	GI50 [8]	GI50 [9]	GI50 [10]	GI50 [11]	GI50 [12]	GI50 [13]	GI50 [14]	GI50 [15]	GI50 [16]	GI50 [17]	GI50 [18]	GI50 [19]	GI50 [20]
ClCCCSSCCCCl	23.6 µM (inactive)	36.1 µM (inactive)	45 µM (inactive)	34.4 µM (inactive)	43.1 µM (inactive)	36.8 µM (inactive)	21.5 µM (inactive)	32.3 µM (inactive)	38.3 µM (inactive)	> 91.6 µM (inactive)	42 µM (inactive)	17.8 µM (inactive)	30.7 µM (inactive)	25.7 µM (inactive)	16.2 µM (inactive)	38.7 µM (inactive)	38.6 µM (inactive)	27.2 µM (inactive)	33 µM (inactive)	20.7 µM (inactive)
C/C(=N\NC(=S)N1CCCC1)c1nc2cccnc2[nH]1	0.304 µM (active)	19.3 µM (inactive)	0.349 µM (active)	0.335 µM (active)	0.175 µM (active)	0.289 µM (active)	0.129 µM (active)	0.321 µM (active)	0.679 µM (active)	0.457 µM (active)	0.0962 µM (active)	13.2 µM (inactive)	0.0634 µM (active)	0.163 µM (active)	0.681 µM (active)	0.869 µM (active)	0.223 µM (active)	0.178 µM (active)	0.354 µM (active)	0.0863 µM (active)
Cc1occc1/C(S)=N\c1ccc(Cl)c(C(=O)OCC2CC2)c1	39.9 µM (inactive)	26.7 µM (inactive)	72.6 µM (inactive)	33.3 µM (inactive)	73.3 µM (inactive)	22.3 µM (inactive)	22.7 µM (inactive)	32.3 µM (inactive)	58.6 µM (inactive)	> 100 µM (inactive)	95.3 µM (inactive)	46.9 µM (inactive)	58.5 µM (inactive)	43.9 µM (inactive)	30.8 µM (inactive)	35.8 µM (inactive)	> 100 µM (inactive)	29.2 µM (inactive)	37.3 µM (inactive)	51.6 µM (inactive)
C=C(CCC(C(=O)O)C1CCC2(C)C3=C(CCC12C)C1(C)CCC(O)C(C)(C)C1CC3)C(C)C (stereo not given)	19.1 µM (inactive)	81.7 µM (inactive)	33.3 µM (inactive)	19.3 µM (inactive)	> 100 µM (inactive)	97.5 µM (inactive)	83.6 µM (inactive)	6.38 µM (inactive)	29.6 µM (inactive)	> 100 µM (inactive)	22 µM (inactive)	77.8 µM (inactive)	> 100 µM (inactive)	28.6 µM (inactive)	60.8 µM (inactive)	29.9 µM (inactive)	17.1 µM (inactive)	22 µM (inactive)	22.3 µM (inactive)	> 100 µM (inactive)
COc1ccc(/C=C(/C)[N+](=O)[O-])cc1	2.22 µM (inactive)	1.77 µM (inactive)	2.65 µM (inactive)	3.41 µM (inactive)	2.36 µM (inactive)	1.5 µM (inactive)	2.75 µM (inactive)	1.67 µM (inactive)	2.03 µM (inactive)	3.19 µM (inactive)	1.62 µM (inactive)	9.02 µM (inactive)	1.67 µM (inactive)	1.75 µM (inactive)	2 µM (inactive)	2.7 µM (inactive)	4.21 µM (inactive)	1.48 µM (inactive)	2.13 µM (inactive)	1.72 µM (inactive)
O=C(O)c1ccc(NCc2nc3cc4ccccc4cc3[nH]2)cc1	> 100 µM (inactive)	87.9 µM (inactive)	5.21 µM (inactive)	> 100 µM (inactive)	> 100 µM (inactive)	2.63 µM (inactive)	> 100 µM (inactive)	> 100 µM (inactive)	> 100 µM (inactive)	> 100 µM (inactive)	> 100 µM (inactive)	> 100 µM (inactive)	> 100 µM (inactive)	> 100 µM (inactive)	> 100 µM (inactive)	> 100 µM (inactive)	> 100 µM (inactive)	> 100 µM (inactive)	> 100 µM (inactive)	> 100 µM (inactive)
COc1ccc(/C=N/c2c(O)ccc3ccccc23)cc1OC	> 100 µM (inactive)	> 100 µM (inactive)	> 100 µM (inactive)	> 100 µM (inactive)	> 100 µM (inactive)	80.5 µM (inactive)	89.3 µM (inactive)	> 100 µM (inactive)	31.8 µM (inactive)	> 100 µM (inactive)	> 100 µM (inactive)	4.36 µM (inactive)	> 100 µM (inactive)	97.9 µM (inactive)	1.95 µM (inactive)	> 100 µM (inactive)	54.6 µM (inactive)	46.8 µM (inactive)	2.81 µM (inactive)	> 100 µM (inactive)
CCCCCCCCCCCOCCC1C(C(C)OCCN2CCCC2)OC2OC(C)(C)OC21 (stereo not given)	3.13 µM (inactive)	1.69 µM (inactive)	1.64 µM (inactive)	3.41 µM (inactive)	5.43 µM (inactive)	1.98 µM (inactive)	3.13 µM (inactive)	0.681 µM (active)	3.91 µM (inactive)	3.67 µM (inactive)	2.24 µM (inactive)	2.68 µM (inactive)	2.51 µM (inactive)	1.82 µM (inactive)	1.82 µM (inactive)	13 µM (inactive)	4.82 µM (inactive)	1.46 µM (inactive)	2.42 µM (inactive)	2.07 µM (inactive)
COc1cc2[nH]c3c(c2cc1OC)CCN[C@@]31CC[C@@]2(CC3c4c(cc(OC)c(O)c42)CCN3C)C[C@@H]1OC (stereo not given in full)	30.9 µM (inactive)	31.9 µM (inactive)	17.9 µM (inactive)	48.8 µM (inactive)	> 81.3 µM (inactive)	17.8 µM (inactive)	25.2 µM (inactive)	42.6 µM (inactive)	> 79.1 µM (inactive)	> 73.3 µM (inactive)	29.2 µM (inactive)	19.7 µM (inactive)	20.6 µM (inactive)	28.6 µM (inactive)	22.2 µM (inactive)	32 µM (inactive)	63 µM (inactive)	18.8 µM (inactive)	66.1 µM (inactive)	14.9 µM (inactive)
